According to ChEMBL document CHEMBL3885881, “DrugMatrix”:

Species: Rattus norvegicus
Experiment: DrugMatrix - Regimen: Daily Repeat
Format: toxicity, organism-based, Sprague-Dawley
Parameters: regimen Daily Repeat, gender Male, age 6-8 weeks
Conditions: in vivo, po, route oral GAVAGE, […]; for ABSOLUTE BASOPHIL / ABSOLUTE EOSINOPHIL / ABSOLUTE LYMPHOCYTE / ABSOLUTE MONOCYTE / ABSOLUTE SEGMENTED NEUTROPHIL / BASOPHIL / EOSINOPHIL / ERYTHROCYTE COUNT / HEMATOCRIT / HEMOGLOBIN / LEUKOCYTE COUNT / LYMPHOCYTE / MEAN CORPUSCULAR HEMOGLOBIN / MEAN CORPUSCULAR HEMOGLOBIN CONCENTRATION / MEAN CORPUSCULAR VOLUME / MONOCYTE / NEUTROPHIL / NUCLEATED RED BLOOD CELLS / PLATELET COUNT: tissue Blood; for ALANINE AMINOTRANSFERASE / ALBUMIN / ALKALINE PHOSPHATASE / ASPARTATE AMINOTRANSFERASE / BLOOD UREA NITROGEN / CARBON DIOXIDE / CHLORIDE / CHOLESTEROL / CREATINE PHOSPHOKINASE / CREATININE / GLUCOSE / LACTATE DEHYDROGENASE / LIPASE / PHOSPHORUS / POTASSIUM / SODIUM / TOTAL BILIRUBIN / TOTAL PROTEIN / URIC ACID: tissue Plasma
[1] = 47 mg/kg, 120 h, dose level Low, time 5 day
[2] = 250 mg/kg, 72 h, dose level High, time 3 day
[3] = 250 mg/kg, 120 h, dose level High, time 5 day

## CC(=O)Nc1nnc(S(N)(=O)=O)s1 [ACETAZOLAMIDE]
[1]
  ABSOLUTE BASOPHIL: 0 CELLS/uL
  ABSOLUTE EOSINOPHIL: 0 CELLS/uL
  ABSOLUTE LYMPHOCYTE: 10200 CELLS/uL
  ABSOLUTE MONOCYTE: 261.33 CELLS/uL
  ABSOLUTE SEGMENTED NEUTROPHIL: 672 CELLS/uL
  BASOPHIL: 0%
  EOSINOPHIL: 0%
  ERYTHROCYTE COUNT: 5.43 x10E6/uL
  HEMATOCRIT: 33.83%
  HEMOGLOBIN: 13.43 G/DL
  LEUKOCYTE COUNT: 11.13 x10E3/uL
  LYMPHOCYTE: 91.67%
  MEAN CORPUSCULAR HEMOGLOBIN: 24.73 pg
  MEAN CORPUSCULAR HEMOGLOBIN CONCENTRATION: 39.7 G/DL
  MEAN CORPUSCULAR VOLUME: 62.3 fL
  MONOCYTE: 2.33%
  NEUTROPHIL: 6%
  NUCLEATED RED BLOOD CELLS: 0.33 /100WBC
  PLATELET COUNT: 1186.33 x10E3/uL
  ALANINE AMINOTRANSFERASE: 60.33 u/L
  ALBUMIN: 4.07 G/DL
  ALKALINE PHOSPHATASE: 448.67 u/L
  ASPARTATE AMINOTRANSFERASE: 74.67 u/L
  BLOOD UREA NITROGEN: 14 mg/dL
  CARBON DIOXIDE: 27.67 mmol/L
  CHLORIDE: 104 MEQ/L
  CHOLESTEROL: 61.33 mg/dL
  CREATINE PHOSPHOKINASE: 271.67 u/L
  CREATININE: 0.14 mg/dL
  GLUCOSE: 155 mg/dL
  LACTATE DEHYDROGENASE: 142 u/L
  LIPASE: 10.33 u/L
  PHOSPHORUS: 9.17 mg/dL
  POTASSIUM: 5.17 MEQ/L
  SODIUM: 145.83 MEQ/L
  TOTAL BILIRUBIN: 0.23 mg/dL
  TOTAL PROTEIN: 6.07 G/DL
  URIC ACID: 0.33 mg/dL
[2]
  ABSOLUTE BASOPHIL: 0 CELLS/uL
  ABSOLUTE EOSINOPHIL: 0 CELLS/uL
  ABSOLUTE LYMPHOCYTE: 8200.33 CELLS/uL
  ABSOLUTE MONOCYTE: 117.33 CELLS/uL
  ABSOLUTE SEGMENTED NEUTROPHIL: 382.33 CELLS/uL
  BASOPHIL: 0%
  EOSINOPHIL: 0%
  ERYTHROCYTE COUNT: 5.26 x10E6/uL
  HEMATOCRIT: 32.4%
  HEMOGLOBIN: 12.8 G/DL
  LEUKOCYTE COUNT: 8.7 x10E3/uL
  LYMPHOCYTE: 94.33%
  MEAN CORPUSCULAR HEMOGLOBIN: 24.33 pg
  MEAN CORPUSCULAR HEMOGLOBIN CONCENTRATION: 39.5 G/DL
  MEAN CORPUSCULAR VOLUME: 61.57 fL
  MONOCYTE: 1.33%
  NEUTROPHIL: 4.33%
  NUCLEATED RED BLOOD CELLS: 0 /100WBC
  PLATELET COUNT: 1163 x10E3/uL
  ALANINE AMINOTRANSFERASE: 77 u/L
  ALBUMIN: 3.83 G/DL
  ALKALINE PHOSPHATASE: 352.67 u/L
  ASPARTATE AMINOTRANSFERASE: 83.67 u/L
  BLOOD UREA NITROGEN: 11.67 mg/dL
  CARBON DIOXIDE: 29.67 mmol/L
  CHLORIDE: 101.67 MEQ/L
  CHOLESTEROL: 73.33 mg/dL
  CREATINE PHOSPHOKINASE: 296.33 u/L
  CREATININE: 0.37 mg/dL
  GLUCOSE: 157 mg/dL
  LACTATE DEHYDROGENASE: 154 u/L
  LIPASE: 11.33 u/L
  PHOSPHORUS: 9.67 mg/dL
  POTASSIUM: 4.85 MEQ/L
  SODIUM: 144.27 MEQ/L
  TOTAL BILIRUBIN: 0.2 mg/dL
  TOTAL PROTEIN: 5.67 G/DL
  URIC ACID: 0.33 mg/dL
[3]
  ABSOLUTE BASOPHIL: 0 CELLS/uL
  ABSOLUTE EOSINOPHIL: 64 CELLS/uL
  ABSOLUTE LYMPHOCYTE: 8180.67 CELLS/uL
  ABSOLUTE MONOCYTE: 154.33 CELLS/uL
  ABSOLUTE SEGMENTED NEUTROPHIL: 767.67 CELLS/uL
  BASOPHIL: 0%
  EOSINOPHIL: 0.67%
  ERYTHROCYTE COUNT: 5.67 x10E6/uL
  HEMATOCRIT: 35.23%
  HEMOGLOBIN: 13.9 G/DL
  LEUKOCYTE COUNT: 9.17 x10E3/uL
  LYMPHOCYTE: 89.33%
  MEAN CORPUSCULAR HEMOGLOBIN: 24.53 pg
  MEAN CORPUSCULAR HEMOGLOBIN CONCENTRATION: 39.47 G/DL
  MEAN CORPUSCULAR VOLUME: 62.1 fL
  MONOCYTE: 1.67%
  NEUTROPHIL: 8.33%
  NUCLEATED RED BLOOD CELLS: 0 /100WBC
  PLATELET COUNT: 1233.67 x10E3/uL
  ALANINE AMINOTRANSFERASE: 59 u/L
  ALBUMIN: 4.03 G/DL
  ALKALINE PHOSPHATASE: 354.67 u/L
  ASPARTATE AMINOTRANSFERASE: 71 u/L
  BLOOD UREA NITROGEN: 15 mg/dL
  CARBON DIOXIDE: 23.33 mmol/L
  CHLORIDE: 109.33 MEQ/L
  CHOLESTEROL: 66 mg/dL
  CREATINE PHOSPHOKINASE: 397 u/L
  CREATININE: 0.18 mg/dL
  GLUCOSE: 141.67 mg/dL
  LACTATE DEHYDROGENASE: 111.33 u/L
  LIPASE: 10.33 u/L
  PHOSPHORUS: 8.57 mg/dL
  POTASSIUM: 5.2 MEQ/L
  SODIUM: 146 MEQ/L
  TOTAL BILIRUBIN: 0.17 mg/dL
  TOTAL PROTEIN: 6.1 G/DL
  URIC ACID: 0.53 mg/dL
